These results are taken from publication PMC6242839 (Nature Communications, 2018).

As usually defined, the IC50 is the concentration that inhibits the measured activity by half.

≈ marks a conversion by molar mass, not a printed value.

Series [1] deals with Bacillus cereus ATCC 14579. The note with it: cited from earlier work.
The test system of series [2] is B. anthracis pathogenic strain (human isolate). Briefly: microbe, parasite or virus in culture. The format is cell-based. The note with it: Bacillus anthracis; 16 h at 37 °C; read-out: MIC B. anthracis Pathogenic.
Series [3] relates to B. anthracis ovine strain (animal isolate). The series is described as follows: microbe, parasite or virus in culture. The format is cell-based. The conditions noted are these: Bacillus anthracis; 16 h at 37 °C; read-out: MIC B. anthracis Ovine.
Another series concerns B. cereus (ATCC 10876). The series is described as follows: microbe, parasite or virus in culture. The format is cell-based. The note with it: Bacillus cereus, ATCC10876; 16 h at 37 °C; read-out: MIC B. cereus.
Another series has as its system E. faecalis (ATCC 29212). The series is described as follows: microbe, parasite or virus in culture. The note with it: Enterococcus faecalis, ATCC29212; 16 h at 37 °C; read-out: MIC E. faecalis. The format is cell-based.
The subject of series [4] is B. anthracis Sterne strain. The series is described as follows: microbe, parasite or virus in culture. The format is cell-based. The note with it: Bacillus anthracis; 16 h at 37 °C; read-out: MIC B. anthracis Sterne.
The next series can be described thus: in vitro. The note with it: human.
The test system of the next series is B. cereus ATCC 14579. Briefly: microbe, parasite or virus in culture. The format is cell-based, Bacillus cereus. The note with it: Bacillus cereus, ATCC14579.

`CC1(C)S[C@@H]2[C@H](NC(=O)[C@H](N)c3ccccc3)C(=O)N2[C@H]1C(=O)O` [Ampicillin]: the MIC in series [1] was 0.25 µg/mL (≈ 0.715 µM).
`CCCCCCCCCCCCO[C@@H]1C[C@H](O)[C@@H](O)[C@H](C)O1` [Compound 5]: the MIC was 101 µM (≈ 32 µg/mL) in series [2]; 101 µM (≈ 32 µg/mL) in series [3]; 202 µM (≈ 63.9 µg/mL) in the series on B. cereus (ATCC 10876); 101 µM (≈ 32 µg/mL) with E. faecalis (ATCC 29212); 202 µM (≈ 63.9 µg/mL) in series [4].
Consider `CCCCCCCCCCCCO[C@@H]1C[C@H](O)[C@@H](O)CO1` [Compound 8], for which the MIC worked out at 26 µM (≈ 7.86 µg/mL) in series [2], 52 µM (≈ 15.7 µg/mL) in series [3], 52 µM (≈ 15.7 µg/mL) with E. faecalis (ATCC 29212) and 26 µM (≈ 7.86 µg/mL) in series [4].
For the compound `CCCCCCCCCCCC[C@@H]1C[C@@H](O)[C@H](O)[C@@H](CO)O1` [Compound 14], the MIC was determined as 51 µM (≈ 16.1 µg/mL) in series [2]; 51 µM (≈ 16.1 µg/mL) in series [3]; 51 µM (≈ 16.1 µg/mL) with B. cereus (ATCC 10876); 51 µM (≈ 16.1 µg/mL) in the series with E. faecalis (ATCC 29212); 104 µM (≈ 32.9 µg/mL) in series [4].
Consider `NC[C@H]1O[C@H](O[C@H]2[C@H](O)[C@@H](O[C@H]3O[C@H](CO)[C@@H](O)[C@H](N)[C@H]3O)[C@H](N)C[C@@H]2N)[C@H](O)[C@@H](O)[C@@H]1O` [Kanamycin], for which, in series [1], the MIC was 15 µg/mL (≈ 31 µM).
Take `CCCCCCCCCCCCO[C@H]1C[C@H](O)[C@H](O)[C@H](C)O1` [Compound 4]: the MIC in series [2] was 25 µM (≈ 7.91 µg/mL); in series [3], 25 µM (≈ 7.91 µg/mL); in the series with B. cereus (ATCC 10876), 25 µM (≈ 7.91 µg/mL); in the series with E. faecalis (ATCC 29212) it was over 50 µM; in series [4] it was 25 µM (≈ 7.91 µg/mL). The compound also yielded an IC50 at 24 h in “in vitro” of 100 µM. Besides, the IC50 at 48 h in the series “in vitro” turned out to be 50 µM.
For the compound `CCCCCCCCCCCCO[C@@H]1C[C@@H](O)[C@H](O)[C@@H](C)O1` [Compound 9], the MIC turned out to be 50 µM (≈ 15.8 µg/mL) in series [2]; 50 µM (≈ 15.8 µg/mL) in series [3]; 25 µM (≈ 7.91 µg/mL) with B. cereus (ATCC 10876); 50 µM (≈ 15.8 µg/mL) with E. faecalis (ATCC 29212); 50 µM (≈ 15.8 µg/mL) in series [4]. Further, in “in vitro”, the midpoint of inhibition, the IC50 at 24 h, lay at 100 µM. Besides, the IC50 at 48 h in the series “in vitro” is 50 µM.
As for `CCCCCCCCCCCCO[C@H]1O[C@H](CO)C[C@H](O)[C@H]1O` [Compound 15], the MIC (in series [2]; in series [3]; in the series on B. cereus (ATCC 10876); in the series on E. faecalis (ATCC 29212); in series [4]) was 51 µM (≈ 17 µg/mL) in each case.
As for `CNC(C)C1CCC(N)C(OC2C(N)CC(N)C(OC3OCC(C)(O)C(NC)C3O)C2O)O1` (stereo not drawn) [Gentamicin], the MIC in series [1] is 4 µg/mL (≈ 8.38 µM).
As to `CCCCCCCCCCCCS[C@H]1C[C@@H](O)[C@H](O)CO1` [Compound 20], the MIC in series [2] is 50 µM (≈ 15.9 µg/mL); in series [3], 50 µM (≈ 15.9 µg/mL); in the series on B. cereus (ATCC 10876), 50 µM (≈ 15.9 µg/mL); in the series with E. faecalis (ATCC 29212), over 50 µM; in the series with B. cereus ATCC 14579, 32 µg/mL (≈ 100 µM); in series [4], 25 µM (≈ 7.96 µg/mL). The MBC with B. cereus ATCC 14579 was 32 µg/mL (≈ 100 µM).
`CCCCCCCCCCCCS[C@@H]1C[C@@H](O)[C@H](O)CO1` [Compound 19]: the MIC came to 25 µM (≈ 7.96 µg/mL) in series [2]; 50 µM (≈ 15.9 µg/mL) in series [3]; 25 µM (≈ 7.96 µg/mL) in the series on B. cereus (ATCC 10876); 50 µM (≈ 15.9 µg/mL) with E. faecalis (ATCC 29212); 50 µM (≈ 15.9 µg/mL) in series [4].
As to `CCCCCCCCCCCCO[C@H]1O[C@H](C)C[C@H](O)[C@H]1O` [Compound 11, dodecyl 4,6-dideoxy-α-D-xylo-hexopyranoside], the MIC (in series [2]; in series [3]; in the series on B. cereus (ATCC 10876); with E. faecalis (ATCC 29212); in series [4]) was 12.6 µM (≈ 3.99 µg/mL) throughout. The compound further displayed an IC50 at 48 h in “in vitro” of 50 µM.
As for `CCCCCCCCCCCCO[C@H]1C[C@@H](O)[C@H](O)CO1` [Compound 18], the MIC came out at 26 µM (≈ 7.86 µg/mL) in series [2]; 52 µM (≈ 15.7 µg/mL) in series [3]; 52 µM (≈ 15.7 µg/mL) with B. cereus (ATCC 10876); 52 µM (≈ 15.7 µg/mL) in the series on E. faecalis (ATCC 29212); 26 µM (≈ 7.86 µg/mL) in series [4]. The IC50 at 24 h in “in vitro” was over 100 µM. In “in vitro”, this compound yielded an IC50 at 48 h of over 50 µM.
For the compound `CCCCCCCCCCCCO[C@H]1C[C@H](O)[C@@H](O)CO1` [Compound 7], the MIC in series [2] was 52 µM (≈ 15.7 µg/mL); in series [3], 52 µM (≈ 15.7 µg/mL); in the series with E. faecalis (ATCC 29212), 52 µM (≈ 15.7 µg/mL); against B. cereus ATCC 14579, 16 µg/mL (≈ 52.9 µM); in series [4], 26 µM (≈ 7.86 µg/mL). The IC50 at 24 h in “in vitro” is over 100 µM. For the same compound, half-maximal inhibition in the series “in vitro” (IC50 at 48 h) was put at 100 µM. Further, the MBC in the series with B. cereus ATCC 14579 amounted to 16 µg/mL (≈ 52.9 µM).
Regarding `CCn1cc(C(=O)O)c(=O)c2cc(F)c(N3CCNCC3)cc21` [Norfloxacin], the MIC in series [1] was 1.25 µg/mL (≈ 3.91 µM).
With `CCCCCCCCCCCC[C@@H]1C[C@@H](O)[C@H](O)[C@@H](C)O1` [Compound 10, 1-(2,6-Dideoxy-α-D-arabino-hexopyranosyl)dodecane], the MIC in series [2] is 27 µM (≈ 8.11 µg/mL); in series [3], 27 µM (≈ 8.11 µg/mL); in the series on B. cereus (ATCC 10876), 27 µM (≈ 8.11 µg/mL); with E. faecalis (ATCC 29212), over 54 µM; in the series with B. cereus ATCC 14579, 32 µg/mL (≈ 106 µM); in series [4], 27 µM (≈ 8.11 µg/mL). This compound came in with an IC50 at 24 h in the series “in vitro” of over 100 µM. The IC50 at 48 h in the series “in vitro” was over 100 µM. Besides, in the series with B. cereus ATCC 14579, the MBC came out at 32 µg/mL (≈ 106 µM).
With `CCCCCCCCCCCC[C@H]1C[C@H](O)[C@@H](O)[C@H](C)O1` [Compound 3], the MIC in series [2] is 54 µM (≈ 16.2 µg/mL); in series [3] it was 54 µM (≈ 16.2 µg/mL); in the series with B. cereus (ATCC 10876), 27 µM (≈ 8.11 µg/mL); in the series on E. faecalis (ATCC 29212) it was over 54 µM; in series [4], 27 µM (≈ 8.11 µg/mL). The same compound had an IC50 at 24 h in the series “in vitro” of over 100 µM. The compound also yielded an IC50 at 48 h in the series “in vitro” of 100 µM.
Regarding `CCCCCCCCCCCCO[C@@H]1O[C@@H](C)[C@H](O)[C@@H](O)[C@H]1O` [Compound 6], the MIC in series [2] is 24 µM (≈ 7.98 µg/mL); in series [3], 48 µM (≈ 16 µg/mL); with E. faecalis (ATCC 29212), 48 µM (≈ 16 µg/mL); with B. cereus ATCC 14579, 32 µg/mL (≈ 96.2 µM); in series [4], 24 µM (≈ 7.98 µg/mL). Moreover, in the series on B. cereus ATCC 14579, the MBC was 32 µg/mL (≈ 96.2 µM).
On to `CCCCCCCCCCCC[C@@H]1C[C@@H](O)[C@H](O)CO1` [Compound 21, 1-(2-Deoxy-α-D-threo-pentopyranosyl)dodecane], for which the MIC amounted to 28 µM (≈ 8.02 µg/mL) in series [2]; 28 µM (≈ 8.02 µg/mL) in series [3]; 28 µM (≈ 8.02 µg/mL) with B. cereus (ATCC 10876); 56 µM (≈ 16 µg/mL) with E. faecalis (ATCC 29212); 28 µM (≈ 8.02 µg/mL) in series [4]. The same compound yielded an IC50 at 24 h in “in vitro” of over 100 µM. For the same compound, in “in vitro”, the IC50 at 48 h came to 100 µM.
Consider `CCCCCCCCCCCCO[C@@H]1C[C@@H](O)[C@H](O)CO1` [Compound 17], for which the MIC in series [2] was 52 µM (≈ 15.7 µg/mL); in series [3], 52 µM (≈ 15.7 µg/mL); in the series with B. cereus (ATCC 10876), 52 µM (≈ 15.7 µg/mL); with E. faecalis (ATCC 29212), over 52 µM; against B. cereus ATCC 14579, 16 µg/mL (≈ 52.9 µM); in series [4] it was 26 µM (≈ 7.86 µg/mL). For the same compound, the half-inhibitory concentration (IC50) at 24 h in the series “in vitro” was over 100 µM. The compound further came in with an IC50 at 48 h in “in vitro” of over 100 µM. The compound also registered an MBC against B. cereus ATCC 14579 of 16 µg/mL (≈ 52.9 µM).
Regarding `CCCCCCCCCCCCO[C@@H]1O[C@H](C)C[C@H](O)[C@H]1O` [Compound 12], the MIC (in series [2]; in series [3]; in the series on B. cereus (ATCC 10876); with E. faecalis (ATCC 29212); in series [4]) was over 405 µM in each case. In “in vitro”, this compound displayed an IC50 at 48 h of 50 µM.
As to `CCCCCCCCCCCCO[C@H]1O[C@H](C)[C@@H](O)[C@H](O)[C@@H]1O` [Compound 16], the MIC in series [2] is 24 µM (≈ 7.98 µg/mL); in series [3] it was over 48 µM; in the series on B. cereus (ATCC 10876), 48 µM (≈ 16 µg/mL); in the series with E. faecalis (ATCC 29212), over 48 µM; in series [4] it was 24 µM (≈ 7.98 µg/mL).
Consider `CCCCCCCCCCCCS[C@H]1C[C@H](O)[C@@H](O)[C@H](C)O1` [Compound 2], for which the MIC is 48 µM (≈ 16 µg/mL) in series [2]; 48 µM (≈ 16 µg/mL) in series [3]; 48 µM (≈ 16 µg/mL) in the series with B. cereus (ATCC 10876); over 48 µM in the series with E. faecalis (ATCC 29212); 24 µM (≈ 7.98 µg/mL) in series [4]. In “in vitro”, this compound gave an IC50 at 24 h of over 50 µM. Further, the IC50 at 48 h in “in vitro” was over 50 µM.
